From ChEMBL document CHEMBL4364276, “Discovery of 4-phenyl-2H-benzo[b][1,4]oxazin-3(4H)-one derivatives as potent and orally active PI3K/mTOR dual inhibitors” (Eur J Med Chem, 2019)

Assays:
[1] = target: Phosphatidylinositol 4,5-bisphosphate 3-kinase catalytic subunit gamma isoform (Homo sapiens, UniProt P48736); experiment: Inhibition of recombinant human full length N-terminal DYKDDDDK-tagged PI3Kgamma (1 to 1102 residues) expressed in baculovirus expression system using PIP2 as substrate incubated for 2 hrs by ADP-Glo assay
[2] = system: HeLa; experiment: Antiproliferative activity against human HeLa cells assessed as reduction in cell viability incubated for 72 hrs by MTT assay; type: functional, cell-based
[3] = Inhibition of PI3K/Akt/mTOR signaling in human HeLa cells assessed as reduction in AKT 308 phosphorylation incubated for 24 hrs by Western blot analysis; type: cell-based
[4] = system: HeLa; experiment: Inhibition of colony formation in human HeLa cells incubated for 2 weeks crystal violet staining based assay; type: functional, cell-based
[5] = Half life in Sprague-Dawley rat at 10 mg/kg, po measured upto 24 hrs by LC-MS/MS analysis; type: ADME, organism-based; settings: in vivo
[6] = target: Bone morphogenetic protein receptor type-1A (Homo sapiens) (UniProt P36894); experiment: Inhibition of human ALK3 at 100 nM using casein as substrate by [gamma-33P]-ATP assay
[7] = target: Calcium/calmodulin-dependent protein kinase type 1G (Homo sapiens) (UniProt Q96NX5); experiment: Inhibition of human CAMK1G at 100 nM using KKALRRQETVDAL as substrate by [gamma-33P]-ATP assay
[8] = target: Cyclin-dependent kinase 14/Cyclin-Y (Homo sapiens) (UniProt O94921+Q8ND76); experiment: Inhibition of human CDK14/cyclin-Y at 100 nM using RB protein as substrate by [gamma-33P]-ATP assay; type: protein-complex assay
[9] = target: Cyclin-C/Cyclin-dependent kinase 19 (Homo sapiens) (UniProt Q9BWU1+P24863); experiment: Inhibition of human CDK19/cyclin-C at 100 nM using RB protein as substrate by [gamma-33P]-ATP assay; type: protein-complex assay
[10] = target: CDK3/Cyclin E (Homo sapiens) (UniProt P24864+Q00526); experiment: Inhibition of human CDK3/cyclin-E at 100 nM using histone H1 as substrate by [gamma-33P]-ATP assay; type: protein-complex assay
[11] = target: Serine/threonine-protein kinase Chk2 (Homo sapiens) (UniProt O96017); experiment: Inhibition of human CHK2 at 100 nM using KKKVSRSGLYRSPSMPENLNRPR as substrate by [gamma-33P]-ATP assay
[12] = target: Ephrin type-A receptor 6 (Homo sapiens) (UniProt Q9UF33); experiment: Inhibition of human EPHA6 at 100 nM using poly[Glu:Tyr] (4:1) as substrate by [gamma-33P]-ATP assay
[13] = target: Ephrin type-A receptor 7 (Homo sapiens) (UniProt Q15375); experiment: Inhibition of human EPHA7 at 100 nM using poly[Glu:Tyr] (4:1) as substrate by [gamma-33P]-ATP assay
[14] = target: Tyrosine-protein kinase Fer (Homo sapiens) (UniProt P16591); experiment: Inhibition of human FER at 100 nM using poly[Glu:Tyr] (4:1) as substrate by [gamma-33P]-ATP assay
[15] = target: Fibroblast growth factor receptor 3 (Homo sapiens) (UniProt P22607); experiment: Inhibition of human FGFR3 at 100 nM using poly[Glu:Tyr] (4:1) as substrate by [gamma-33P]-ATP assay
[16] = target: Inhibitor of nuclear factor kappa-B kinase subunit alpha (Homo sapiens) (UniProt O15111); experiment: Inhibition of human IKKalpha at 100 nM using KKKKERLLDDRHDSGLDSMKDEE as substrate by [gamma-33P]-ATP assay
[17] = target: Insulin receptor (Homo sapiens) (UniProt P06213); experiment: Inhibition of human IR at 100 nM using poly[Glu:Tyr] (4:1) as substrate by [gamma-33P]-ATP assay
[18] = target: Serine/threonine-protein kinase LATS1 (Homo sapiens) (UniProt O95835); experiment: Inhibition of human LATS1 at 100 nM using KKRNRRLSVA as substrate by [gamma-33P]-ATP assay
[19] = target: Tyrosine-protein kinase Lyn (Homo sapiens) (UniProt P07948); experiment: Inhibition of human LYN at 100 nM using poly[Glu:Tyr] (4:1) as substrate by [gamma-33P]-ATP assay
[20] = target: Dual specificity mitogen-activated protein kinase kinase 1 (Homo sapiens) (UniProt Q02750); experiment: Inhibition of human MEK1 at 100 nM using ERK2 as substrate by [gamma-33P]-ATP assay
[21] = target: Mitogen-activated protein kinase kinase kinase 2 (Homo sapiens) (UniProt Q9Y2U5); experiment: Inhibition of human MEKK2 at 100 nM using MBP as substrate by [gamma-33P]-ATP assay
[22] = target: Myosin-IIIa (Homo sapiens) (UniProt Q8NEV4); experiment: Inhibition of human MYO3A at 100 nM using MBP as substrate by [gamma-33P]-ATP assay
[23] = target: Serine/threonine-protein kinase Nek2 (Homo sapiens) (UniProt P51955); experiment: Inhibition of human NEK2 at 100 nM using MBP as substrate by [gamma-33P]-ATP assay
[24] = target: Mitogen-activated protein kinase 12 (Homo sapiens) (UniProt P53778); experiment: Inhibition of human p38gamma at 100 nM using MBP as substrate by [gamma-33P]-ATP assay
[25] = target: Protein kinase C zeta type (Homo sapiens) (UniProt Q05513); experiment: Inhibition of human PKCzeta at 100 nM using ERMRPRKRQGSVRRRV as substrate by [gamma-33P]-ATP assay
[26] = target: cGMP-dependent protein kinase 2 (Homo sapiens) (UniProt Q13237); experiment: Inhibition of human PKG2 at 100 nM using LRRASLG as substrate by [gamma-33P]-ATP assay
[27] = target: Ribosomal protein S6 kinase alpha-1 (Homo sapiens) (UniProt Q15418); experiment: Inhibition of human RSK1 at 100 nM using KKLNRTLSVA as substrate by [gamma-33P]-ATP assay
[28] = target: SNF-related serine/threonine-protein kinase (Homo sapiens) (UniProt Q9NRH2); experiment: Inhibition of human SNRK at 100 nM using MBP as substrate by [gamma-33P]-ATP assay
[29] = target: SRSF protein kinase 2 (Homo sapiens) (UniProt P78362); experiment: Inhibition of human SRPK2 at 100 nM using GRSRSRSRSR as substrate by [gamma-33P]-ATP assay
[30] = target: Serine/threonine-protein kinase tousled-like 1 (Homo sapiens) (UniProt Q9UKI8); experiment: Inhibition of human TLK1 at 100 nM using Histone H3 as substrate by [gamma-33P]-ATP assay
[31] = target: Tyrosine-protein kinase Yes (Homo sapiens) (UniProt P07947); experiment: Inhibition of human YES at 100 nM using poly[Glu:Tyr] (4:1) as substrate by [gamma-33P]-ATP assay
[32] = species: Homo sapiens; experiment: Inhibition of human AMPK (A1/B2/G1) at 100 nM using HMRSAMSGLHLVKRR as substrate by [gamma-33P]-ATP assay

Chain of SNF-related serine/threonine-protein kinase (Homo sapiens) (Q9NRH2 whole entry): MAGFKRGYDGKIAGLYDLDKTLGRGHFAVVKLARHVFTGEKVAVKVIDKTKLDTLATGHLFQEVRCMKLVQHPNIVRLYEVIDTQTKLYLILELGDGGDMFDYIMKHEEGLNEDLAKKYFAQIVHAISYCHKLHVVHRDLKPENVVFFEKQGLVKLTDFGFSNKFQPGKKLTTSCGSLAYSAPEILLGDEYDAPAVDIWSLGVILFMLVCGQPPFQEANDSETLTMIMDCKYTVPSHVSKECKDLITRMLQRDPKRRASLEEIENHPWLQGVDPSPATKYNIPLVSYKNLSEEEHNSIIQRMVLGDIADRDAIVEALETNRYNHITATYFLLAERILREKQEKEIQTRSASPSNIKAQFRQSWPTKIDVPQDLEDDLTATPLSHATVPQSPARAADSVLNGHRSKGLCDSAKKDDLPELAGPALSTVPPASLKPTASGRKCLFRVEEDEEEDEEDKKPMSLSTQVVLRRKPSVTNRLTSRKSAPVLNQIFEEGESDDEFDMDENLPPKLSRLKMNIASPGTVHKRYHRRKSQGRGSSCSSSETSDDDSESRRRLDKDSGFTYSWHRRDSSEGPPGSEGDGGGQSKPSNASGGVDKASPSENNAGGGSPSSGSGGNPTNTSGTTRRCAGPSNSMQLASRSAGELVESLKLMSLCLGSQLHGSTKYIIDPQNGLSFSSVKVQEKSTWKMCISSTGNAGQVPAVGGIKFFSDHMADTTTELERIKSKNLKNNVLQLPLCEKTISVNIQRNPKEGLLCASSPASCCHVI
Chain of Serine/threonine-protein kinase Nek2 (Homo sapiens) (P51955 whole entry): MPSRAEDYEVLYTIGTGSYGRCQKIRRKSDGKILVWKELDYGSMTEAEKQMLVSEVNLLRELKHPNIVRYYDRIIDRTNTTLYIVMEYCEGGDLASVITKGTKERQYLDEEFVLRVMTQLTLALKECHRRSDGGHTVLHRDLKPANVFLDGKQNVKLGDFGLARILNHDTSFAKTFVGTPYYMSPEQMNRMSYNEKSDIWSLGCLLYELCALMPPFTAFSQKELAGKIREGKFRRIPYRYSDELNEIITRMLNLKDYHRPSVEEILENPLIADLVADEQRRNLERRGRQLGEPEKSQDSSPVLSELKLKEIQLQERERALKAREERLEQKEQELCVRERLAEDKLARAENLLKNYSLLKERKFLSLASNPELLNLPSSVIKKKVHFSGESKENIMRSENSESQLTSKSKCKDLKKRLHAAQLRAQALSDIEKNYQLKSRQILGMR
Chain of Serine/threonine-protein kinase tousled-like 1 (Homo sapiens) (Q9UKI8 whole entry): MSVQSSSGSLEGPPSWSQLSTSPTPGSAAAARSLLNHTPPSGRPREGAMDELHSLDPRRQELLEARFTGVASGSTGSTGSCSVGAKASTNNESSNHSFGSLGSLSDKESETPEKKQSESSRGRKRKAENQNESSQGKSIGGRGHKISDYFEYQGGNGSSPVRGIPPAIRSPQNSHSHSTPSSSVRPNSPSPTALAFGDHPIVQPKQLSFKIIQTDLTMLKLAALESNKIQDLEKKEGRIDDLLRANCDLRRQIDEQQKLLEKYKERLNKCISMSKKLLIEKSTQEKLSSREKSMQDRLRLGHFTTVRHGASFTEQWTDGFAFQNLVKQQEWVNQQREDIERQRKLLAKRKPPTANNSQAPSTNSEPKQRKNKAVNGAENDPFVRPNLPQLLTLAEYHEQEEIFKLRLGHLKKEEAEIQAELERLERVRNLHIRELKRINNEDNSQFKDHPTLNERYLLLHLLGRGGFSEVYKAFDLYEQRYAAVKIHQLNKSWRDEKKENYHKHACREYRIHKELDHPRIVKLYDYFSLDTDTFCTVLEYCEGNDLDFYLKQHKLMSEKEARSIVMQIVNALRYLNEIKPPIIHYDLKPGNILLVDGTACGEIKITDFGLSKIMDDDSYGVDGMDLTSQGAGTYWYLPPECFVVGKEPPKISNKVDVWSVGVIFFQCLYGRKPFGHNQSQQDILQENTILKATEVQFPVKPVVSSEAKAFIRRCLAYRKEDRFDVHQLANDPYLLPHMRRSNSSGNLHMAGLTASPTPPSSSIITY
Chain of Tyrosine-protein kinase Lyn (Homo sapiens) (P07948 2-512 limits assumed): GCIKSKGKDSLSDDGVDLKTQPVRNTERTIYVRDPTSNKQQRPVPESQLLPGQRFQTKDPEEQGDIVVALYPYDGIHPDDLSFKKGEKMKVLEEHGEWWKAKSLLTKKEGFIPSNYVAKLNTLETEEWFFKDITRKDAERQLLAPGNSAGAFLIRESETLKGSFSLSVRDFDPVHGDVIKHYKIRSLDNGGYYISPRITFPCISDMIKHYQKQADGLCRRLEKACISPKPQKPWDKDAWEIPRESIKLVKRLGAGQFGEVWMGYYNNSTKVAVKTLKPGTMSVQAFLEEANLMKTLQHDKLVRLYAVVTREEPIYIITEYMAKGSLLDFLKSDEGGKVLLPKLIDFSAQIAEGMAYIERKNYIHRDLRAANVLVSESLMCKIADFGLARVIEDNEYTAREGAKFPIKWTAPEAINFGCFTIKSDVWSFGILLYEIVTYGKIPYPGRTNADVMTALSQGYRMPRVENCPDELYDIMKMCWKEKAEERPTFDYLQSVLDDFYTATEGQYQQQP
Chain of Calcium/calmodulin-dependent protein kinase type 1G (Homo sapiens) (Q96NX5 whole entry): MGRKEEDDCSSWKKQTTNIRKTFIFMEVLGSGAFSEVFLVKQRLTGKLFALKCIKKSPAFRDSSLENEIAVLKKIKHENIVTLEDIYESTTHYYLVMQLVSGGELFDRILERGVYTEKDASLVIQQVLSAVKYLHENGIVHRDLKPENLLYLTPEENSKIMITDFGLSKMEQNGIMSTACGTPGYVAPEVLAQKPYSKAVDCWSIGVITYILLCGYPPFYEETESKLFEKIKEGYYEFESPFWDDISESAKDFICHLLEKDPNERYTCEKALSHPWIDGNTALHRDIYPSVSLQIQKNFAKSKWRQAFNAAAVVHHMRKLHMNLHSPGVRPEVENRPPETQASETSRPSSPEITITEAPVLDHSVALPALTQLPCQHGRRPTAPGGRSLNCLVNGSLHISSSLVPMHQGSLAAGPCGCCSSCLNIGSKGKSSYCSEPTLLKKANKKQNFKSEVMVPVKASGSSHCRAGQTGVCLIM
Chain of SRSF protein kinase 2 (Homo sapiens) (P78362 whole entry, looked up): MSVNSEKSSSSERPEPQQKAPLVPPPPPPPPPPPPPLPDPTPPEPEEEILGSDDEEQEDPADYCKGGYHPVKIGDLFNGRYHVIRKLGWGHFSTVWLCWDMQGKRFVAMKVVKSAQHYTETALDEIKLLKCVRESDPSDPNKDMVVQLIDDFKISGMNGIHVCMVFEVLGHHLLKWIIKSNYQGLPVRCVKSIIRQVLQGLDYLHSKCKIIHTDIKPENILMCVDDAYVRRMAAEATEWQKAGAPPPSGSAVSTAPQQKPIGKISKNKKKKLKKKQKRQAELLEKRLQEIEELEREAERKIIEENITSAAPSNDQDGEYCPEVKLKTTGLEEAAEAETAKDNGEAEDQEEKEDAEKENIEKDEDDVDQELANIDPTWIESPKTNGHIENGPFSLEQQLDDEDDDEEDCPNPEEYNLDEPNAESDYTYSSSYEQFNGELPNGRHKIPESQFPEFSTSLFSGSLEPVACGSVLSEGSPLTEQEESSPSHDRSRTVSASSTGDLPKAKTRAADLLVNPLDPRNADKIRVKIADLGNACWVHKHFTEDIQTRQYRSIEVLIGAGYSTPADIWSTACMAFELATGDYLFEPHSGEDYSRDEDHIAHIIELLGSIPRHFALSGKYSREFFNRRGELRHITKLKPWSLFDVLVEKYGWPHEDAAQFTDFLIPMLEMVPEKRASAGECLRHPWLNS
Chain of Ribosomal protein S6 kinase alpha-1 (Homo sapiens) (Q15418 whole entry): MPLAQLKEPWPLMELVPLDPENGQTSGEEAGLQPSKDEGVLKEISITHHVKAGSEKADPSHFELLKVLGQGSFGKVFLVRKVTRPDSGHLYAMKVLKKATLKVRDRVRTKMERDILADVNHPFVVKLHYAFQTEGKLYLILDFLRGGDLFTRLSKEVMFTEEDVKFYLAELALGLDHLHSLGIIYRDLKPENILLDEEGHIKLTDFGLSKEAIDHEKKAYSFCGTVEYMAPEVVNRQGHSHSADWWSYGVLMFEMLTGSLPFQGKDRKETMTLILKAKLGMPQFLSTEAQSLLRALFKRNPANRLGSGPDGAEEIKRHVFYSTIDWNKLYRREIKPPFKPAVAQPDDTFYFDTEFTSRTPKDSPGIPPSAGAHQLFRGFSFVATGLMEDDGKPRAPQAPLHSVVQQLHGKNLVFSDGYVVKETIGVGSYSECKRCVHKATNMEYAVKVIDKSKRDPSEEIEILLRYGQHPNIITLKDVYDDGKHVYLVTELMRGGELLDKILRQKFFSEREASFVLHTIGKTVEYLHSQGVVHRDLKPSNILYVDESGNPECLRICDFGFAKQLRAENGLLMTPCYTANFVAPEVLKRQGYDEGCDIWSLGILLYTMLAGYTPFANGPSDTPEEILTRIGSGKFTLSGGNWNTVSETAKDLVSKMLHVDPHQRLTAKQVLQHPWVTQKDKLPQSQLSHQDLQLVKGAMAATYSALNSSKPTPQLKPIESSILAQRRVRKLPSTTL
Chain of Bone morphogenetic protein receptor type-1A (Homo sapiens) (P36894 whole entry): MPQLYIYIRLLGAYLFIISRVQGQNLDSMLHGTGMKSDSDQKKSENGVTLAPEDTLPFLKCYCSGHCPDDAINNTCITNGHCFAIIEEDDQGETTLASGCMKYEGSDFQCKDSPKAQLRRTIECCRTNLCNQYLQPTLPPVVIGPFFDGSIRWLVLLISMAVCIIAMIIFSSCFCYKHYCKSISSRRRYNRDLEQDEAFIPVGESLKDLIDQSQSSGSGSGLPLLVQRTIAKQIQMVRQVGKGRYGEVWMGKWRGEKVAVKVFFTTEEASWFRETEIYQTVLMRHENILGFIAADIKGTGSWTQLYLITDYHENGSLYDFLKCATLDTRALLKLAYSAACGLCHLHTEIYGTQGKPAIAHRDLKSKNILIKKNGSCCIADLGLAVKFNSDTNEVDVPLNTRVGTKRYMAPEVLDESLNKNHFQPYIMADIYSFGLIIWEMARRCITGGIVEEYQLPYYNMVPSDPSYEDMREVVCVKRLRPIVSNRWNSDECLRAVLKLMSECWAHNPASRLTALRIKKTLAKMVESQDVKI

SMILES: COc1ccc(N2C(=O)COc3ccc(-c4cnc(OC)c(NS(=O)(=O)c5ccc(F)cc5)c4)cc32)cc1
- IC50 [1]: 0.022 µM
- IC50 [2]: 1.22 µM
- inhibition [3]: Dose-dependent effect
- inhibition [4]: Dose-dependent effect
- half-life [5]: 1.78 h
- inhibition [6]: 3.37%
- inhibition [7]: 14.6%
- inhibition [8]: 4.76%
- inhibition [9]: 4.5%
- inhibition [10]: 2.71%
- inhibition [11]: 6.04%
- inhibition [12]: -9.63%
- inhibition [13]: 11.5%
- inhibition [14]: 29.8%
- inhibition [15]: -7.49%
- inhibition [16]: -2.43%
- inhibition [17]: 6.82%
- inhibition [18]: 10.1%
- inhibition [19]: -1.62%
- inhibition [20]: 1.42%
- inhibition [21]: 28.4%
- inhibition [22]: 2.8%
- inhibition [23]: 20.4%
- inhibition [24]: -3.86%
- inhibition [25]: 8.59%
- inhibition [26]: 1.95%
- inhibition [27]: 10.8%
- inhibition [28]: 17.7%
- inhibition [29]: -0.24%
- inhibition [30]: 2.5%
- inhibition [31]: 3.18%
- inhibition [32]: -4.96%
